Measurements from patent publication US20230099822A1, “MR1 LIGANDS AND PHARMACEUTICAL COMPOSITIONS FOR IMMUNOMODULATION” (UNIVERSITÄT BASEL, priority 2020, published 2023).
Where a name gives a salt, the structure may show the parent alone. Values belong to the compound of their own block, whether it stands above or below them.

Key:
MR1T cell clones [1] = test: MR1T cell activation assay with drug-treated THP-1 cells; assay type: cell-based, human; conditions: for T cell response in MR1T cell clones: THP-1 cells treated with drug; for activation of MR1T-cell clones TC5A87, DGB129, MCA3C3: THP-1 cells with Doxorubicin 75 nM or Paclitaxel 5 μM and nucleosides (dAdenosine and Guanosine, both 150 μM); for stimulation of TC5A87 MR1T clone (IFN-γ): THP-1 cells incubated 18 h with drug (FIG. 7d, f, g); for reactivity of DGB129 clone to drug-treated THP-1 cells: drug alone, 25 μM EHNA, 10 μM MPA, 20 μM BBG (FIG. 9H)
Protocol: (§1) MR1T cells (5×10^4/well unless otherwise indicated) were co-cultured with the indicated APCs (10^5 cells per well unless otherwise indicated) for 18 h in 120 μL volume in triplicate. In some experiments, anti-MR1 mAbs (clone 26.5, purified and endotoxin-free mouse IgG2a, (Lepore et al., 2014)) or mouse IgG2a isotype control mAbs (LEAF, Biolegend, Cat #401504) (both at 30 μg/mL) were added and incubated for 30 min at 37° C. prior to the addition of T cells.
(§2) In experiments with mycophenolic acid (10 μM), EHNA (25 μM), S-p-bromobenzylglutathione cyclopentyl diester (BBG, 20 μM) (all from Sigma-Aldrich), THP-1 cells (1×10^6/mL) were treated with the indicated concentrations of drugs in complete medium at 37° C. for 18 h before being washed twice with PBS, counted and used for T-cell activation. In experiments where THP-1 cells (1×10^6/mL) were treated with doxorubicin (75 nM) and paclitaxel (5 μM) (both from Sigma-Aldrich), the cells were incubated at 37° C. for 18 h before being washed twice with PBS, counted, and incubated for 2 h with vehicle or 150 μM dAdo and 150 μM guanosine (Sigma-Aldrich) prior to T-cell addition. In experiments where fixed A375-MR1 cells were used to activate MR1T cells, APCs (4×10^5/mL) were treated with apocynin (APO, 100 μM), L-glutathione reduced (GSH, 4 mM), N-acetyl cysteine (NAC, 4 mM), L-buthionine-sulfoximine (BSO, 400 μM) mercaptosuccinic acid (MSA, 3.3 μM), ML-210 (6 μM) or 1S,3R-RSL3 (RSL3, 1 μM), hydralazine hydrochloride (100 μM) or aminoguanidine hemisulfate salt (5 mM) for 18 h at 37° C. before being washed twice with PBS, fixed with glutaraldehyde, counted and used for MR1T cell stimulation.
(§3) The following human cytokines were assessed by ELISA using specific mAbs: GM-CSF (purified clone BVD2-23B6 and biotinylated clone BVD2-21C11, Biolegend Cat #502202 and 502304, respectively), IFN-γ (purified clone MD-1 and biotinylated clone 4S.B3, Biolegend Cat #507502 and 502504, respectively), IL-13 (purified clone JES10-5A2 and biotinylated clone SB126d, SouthernBiotech Cat #10125-01 and 15930-08, respectively).

MR1T cell clones [2] = test: MR1T cell activation assay with treated and fixed A375-MR1 cells; assay type: cell-based, human; conditions: 18 h treatment before fixation; concentrations (FIG. 10D-L)
Protocol: as §1, §2, §3

MAIT clone MRC25 = test: Control stimulation of MAIT clone MRC25; assay type: cell-based, human; conditions: for MAIT cell activation: A375-MR1 cells treated with carbonyl scavengers (FIG. 16E)
Protocol: In some experiments, MAIT cells were stimulated by APCs pulsed 3 h with 5-OP-RU as previously described or with 30 μM 6,7-dimethyl-8-ribityllumazine (Cayman Chemical Cat #23370).

THP-1 cells = test: ROS production measurement (CM-H2DCFDA); assay type: cell-based, human; conditions: 75 nM Doxorubicin or 5 μM Paclitaxel, 18 h (FIG. 17A)
Protocol: CM-H2DCFDA (Thermo Fisher Scientific) was used to assess ROS production in cell upon cell treatment with Doxorubicin and Paclitaxel. THP-1 cells ([…]) were labelled with 10 μM CM-H2DCFDA for 30 min at 37° C. in the dark, then washed with PBS and resuspended in complete medium. 10^5 cells were seeded per well and treated with 75 nM Doxorubicin, 5 μM Paclitaxel or vehicle for 18 h at 37° C. Phorbol 12-myristate 13-acetate (PMA, 50 ng/mL) was used as positive control.

[3] = target: T1, MR1 surface expression on THP-1 MR1 cells (Homo sapiens, UniProt Q95460); test: Cell surface MR1 modulation on APCs (flow cytometry, anti-MR1 mAb 26.5); assay type: cell-based; conditions: THP-1 MR1 cells, 3 h at 37° C., 3 doses each
T1 construct: expressed in transfected cells; host or cells: THP-1 (ATCC TIB-202) stably expressing MR1 (THP1-MR1)
Protocol: […] […] For each condition, net MFI was calculated subtracting isotype MFI from anti-MR1 MFI and fold change of cells treated with synthetic molecules over cells treated with vehicle was calculated.

MR1T cell clones [4] = test: Competition assay for stimulation of MR1T cell clones; assay type: cell-based, human; conditions: APCs with compound 2 h (3 doses), then antigen at optimal concentration, cytokine ELISA
Protocol: As positive control for competition with antigens, Ac-6-FP was used (100 μM). Supernatants were collected after 24 h for cytokine analysis measured by ELISA.

MR1T cell clones [5] = test: MR1T cell activation assay with THP-1 cells incubated with compounds (cytokine ELISA); assay type: cell-based, human
Protocol: MR1T cells (5×10^4/well unless otherwise indicated) were co-cultured with the indicated APCs (10^5 cells per well unless otherwise indicated) for 18 h in 120 μL volume in triplicate.
When nucleobases, nucleosides or nucleotides (all 250 μM) and synthetic compounds M3ADE, OPdA, M1G or OPdC were used to stimulate T cells, the THP-1 cells (10^5/well) were cultured 2 h with the indicated molecules or medium only, prior to T-cell addition. When a single concentration of synthetic antigens was used, 100 μM OPdA, 100 μM OPdC and 13 μM M1G were used for all clones, while 100 μM M3ADE was used for all clones except DGB129, AC1A4, AC1B76 and AVA46 for which 1 μM was used.

SMILES: O=c1oc2c(O)c(O)cc3c(=O)oc4c(O)c(O)cc1c4c23 [Ellagic acid, ellagic acid]
stimulation of QY1A16 MR1T clone (IFN-γ) (MR1T cell clones [1]; THP-1 cells incubated 18 h with drug (FIG. 7e)): induces the stimulation
T cell response in MR1T cell clones (MR1T cell clones [1]): induced a strong T cell response

SMILES: N=C(N)NN [aminoguanidine, aminoguanidine hemisulfate salt]
MR1T-cell stimulation (IFN-γ) by treated, fixed A375-MR1 cells (MR1T cell clones [2]): significant inhibition of IFN-γ production
MAIT cell activation (MAIT clone MRC25): no effect on MAIT cell activation

SMILES: CC(=O)N[C@@H](CS)C(=O)O [N-acetylcysteine]
MR1T-cell stimulation (IFN-γ) by treated, fixed A375-MR1 cells (MR1T cell clones [2]): significantly less IFN-γ production

SMILES: COc1cc(C(C)=O)ccc1O [apocynin]
MR1T-cell stimulation (IFN-γ) by treated, fixed A375-MR1 cells (MR1T cell clones [2]): effective with one T-cell clone

SMILES: CC(=O)O[C@H]1C(=O)[C@@]2(C)[C@H]([C@H](OC(=O)c3ccccc3)[C@]3(O)C[C@H](OC(=O)[C@H](O)[C@@H](NC(=O)c4ccccc4)c4ccccc4)C(C)=C1C3(C)C)[C@]1(OC(C)=O)CO[C@@H]1C[C@@H]2O [paclitaxel, Paclitaxel]
activation of MR1T-cell clones TC5A87, DGB129, MCA3C3 (MR1T cell clones [1]): promoted activation of all three MR1T-cell clones
MAIT-cell response (MAIT clone MRC25; drug-treated APCs, paclitaxel in presence of nucleosides (FIG. 16C-D)): little but significant stimulation
ROS accumulation (THP-1 cells): significantly increased ROS accumulation

SMILES: CCCCS(=N)(=O)CCC(N)C(=O)O (stereo not drawn) [buthionine sulfoximine]
MR1T-cell stimulation (IFN-γ) by treated, fixed A375-MR1 cells (MR1T cell clones [2]): significant increase

SMILES: Cc1onc(C(=O)N2CCN(C(c3ccc(Cl)cc3)c3ccc(Cl)cc3)CC2)c1[N+](=O)[O-] [ML-210]
MR1T-cell stimulation (IFN-γ) by treated, fixed A375-MR1 cells (MR1T cell clones [2]): significantly increased MR1T-cell stimulatory activity

SMILES: COc1c(C)c2c(c(O)c1C/C=C(\C)CCC(=O)O)C(=O)OC2 [Mycophenolic acid]
stimulation of TC5A87 MR1T clone (IFN-γ) (MR1T cell clones [1]): induces the stimulation
T cell response in MR1T cell clones (MR1T cell clones [1]): induced a strong stimulation
reactivity of DGB129 clone to drug-treated THP-1 cells (MR1T cell clones [1]): reacted

MRI upregulation [3]: YES
SMILES: CC(C)=CCNc1ncnc2c1ncn2[C@@H]1O[C@H](CO)C(O)C1O (stereo partly drawn) [Cmpd 6, N6-isopent-2-enyladenosine]
Competition (MR1T cell clones [4]): YES
Reactive T cells isolated (MR1T cell clones [5]): YES

MRI upregulation [3]: YES
SMILES: C[C@@H](O)[C@H](NC(=O)Nc1ncnc2c1ncn2[C@@H]1O[C@H](CO)[C@@H](O)[C@H]1O)C(=O)O [Cmpd 5, N6-threonylcarbamoyladenosine]
Competition (MR1T cell clones [4]): YES
Reactive T cells isolated (MR1T cell clones [5]): YES

SMILES: N[C@@H](CCC(=O)N[C@@H](CS)C(=O)NCC(=O)O)C(=O)O [GSH, L-glutathione reduced]
MR1T-cell stimulation (IFN-γ) by treated, fixed A375-MR1 cells (MR1T cell clones [2]): significantly less IFN-γ production

MRI upregulation [3]: YES
SMILES: CO[C@@H]1[C@H](O)[C@@H](CO)O[C@H]1n1ccc(N)nc1=O [Cmpd 29, 2′-O-methylcytidine]
Competition (MR1T cell clones [4]): YES

MRI upregulation [3]: YES
SMILES: CN(C)c1nc2c(ncn2[C@@H]2O[C@H](CO)[C@@H](O)[C@H]2O)c(=O)[nH]1 [Cmpd 19, N2,N2-dimethylguanosine]
Competition (MR1T cell clones [4]): YES
Reactive T cells isolated (MR1T cell clones [5]): YES

SMILES: CC1(C)CC[C@]2(C(=O)O)CC[C@]3(C)C(=CC[C@@H]4[C@@]5(C)CC[C@H](O)C(C)(C)[C@@H]5CC[C@]43C)[C@@H]2C1 [Oleanoic acid, oleanoic acid]
stimulation of TC5A87 MR1T clone (IFN-γ) (MR1T cell clones [1]): induces the stimulation
T cell response in MR1T cell clones (MR1T cell clones [1]): induced a strong T cell response

SMILES: O=C(O)CC(S)C(=O)O (stereo not drawn) [mercaptosuccinic acid]
MR1T-cell stimulation (IFN-γ) by treated, fixed A375-MR1 cells (MR1T cell clones [2]): significantly increased MR1T-cell stimulatory activity

SMILES: NC(CCC(=O)NC(CSCc1ccc(Br)cc1)C(=O)NCC(=O)OC1CCCC1)C(=O)OC1CCCC1 (stereo not drawn) [BBG, S-p-bromobenzylglutathione cyclopentyl diester]
IFN-γ release of both MR1T cell clones to THP-1 cells (MR1T cell clones [1]; BBG in combination with each of MPA and EHNA, clones TC5A87 and DGB129 (FIG. 9G, H)): significantly enhanced
reactivity of DGB129 clone to drug-treated THP-1 cells (MR1T cell clones [1]): reacted

MRI upregulation [3]: YES
SMILES: CO[C@@H]1[C@H](O)[C@@H](CO)O[C@H]1n1ccc(=O)n(C)c1=O [Cmpd 32, 3,2′-O-dimethyluridine]
Competition (MR1T cell clones [4]): YES

SMILES: COc1cccc2c1C(=O)c1c(O)c3c(c(O)c1C2=O)C[C@@](O)(C(=O)CO)C[C@@H]3O[C@H]1C[C@H](N)[C@H](O)[C@H](C)O1 [doxorubicin, Doxorubicin]
activation of MR1T-cell clones TC5A87, DGB129, MCA3C3 (MR1T cell clones [1]): promoted activation of all three MR1T-cell clones
ROS accumulation (THP-1 cells): significantly increased ROS accumulation

SMILES: CCCCCC[C@@H]([C@@H](C)O)n1cnc2c(N)ncnc21 (racemic) [EHNA, erythro-9-(2-hydroxy-3-nonyl) adenine]
stimulation of TC5A87 MR1T clone (IFN-γ) (MR1T cell clones [1]): induces the stimulation
T cell response in MR1T cell clones (MR1T cell clones [1]): induced a strong stimulation
reactivity of DGB129 clone to drug-treated THP-1 cells (MR1T cell clones [1]): reacted

MRI upregulation [3]: YES
SMILES: Cc1cn([C@@H]2O[C@H](CO)[C@@H](O)[C@H]2O)c(=O)[nH]c1=O [Cmpd 31, 5-methyluridine]
Competition (MR1T cell clones [4]): YES

MRI upregulation [3]: YES
SMILES: Cn1c(=O)ccn([C@@H]2O[C@H](CO)[C@@H](O)[C@H]2O)c1=O [Cmpd 30, 3-methyluridine]
Competition (MR1T cell clones [4]): YES
Reactive T cells isolated (MR1T cell clones [5]): YES

MRI upregulation [3]: YES
SMILES: C[C@@H](O)[C@H](NC(=O)N(C)c1ncnc2c1ncn2[C@@H]1O[C@H](CO)[C@@H](O)[C@H]1O)C(=O)O [Cmpd 10, N6-methyl-N6-threonylcarbamoyladenosine]
Competition (MR1T cell clones [4]): YES
Reactive T cells isolated (MR1T cell clones [5]): YES

SMILES: COC(=O)c1ccc([C@H]2c3[nH]c4ccccc4c3C[C@H](C(=O)OC)N2C(=O)CCl)cc1 [RSL3, 1S,3R-RSL3]
MR1T-cell stimulation (IFN-γ) by treated, fixed A375-MR1 cells (MR1T cell clones [2]): significantly increased MR1T-cell stimulatory activity

SMILES: O=c1c(-c2ccc(O)cc2)coc2cc(O[C@@H]3O[C@H](CO)[C@@H](O)[C@H](O)[C@H]3O)ccc12 [Daidzin]
response of MCA2B9 MR1T clone (IFN-γ) (MR1T cell clones [1]; THP-1 cells incubated 18 h with drug (FIG. 7a, b)): increase the response
T cell response in MR1T cell clones (MR1T cell clones [1]): induced a strong T cell response

SMILES: NNc1nncc2ccccc12 [hydralazine, hydralazine hydrochloride]
MR1T-cell stimulation (IFN-γ) by treated, fixed A375-MR1 cells (MR1T cell clones [2]): significant inhibition of IFN-γ production
MAIT cell activation (MAIT clone MRC25): no effect on MAIT cell activation
